US20070021325A1, “Drug formulation containing a solubilizer for enhancing solubility, absorption, and permeability” (Mediplex Corporation, priority 2005, published 2007)

Assay: Oral absorption of encapsulated DMSO-bound heparin-DOCA in monkeys (FIG. 5)
Format: in vivo
Settings: in buffer, 100 mg/kg (control)
Method: DMSO-bound heparin-DOCA prepared according to the method of Example 1 was encapsulated and then administered orally to monkeys at either 5 mg/kg or 10 mg/kg dosages. As a control, heparin in buffer was orally administered at 100 mg/kg.

absorption after oral administration: negligible
Substance: heparin
